# Where two headings read alike, the source gives them in different places.
# Experiments:
# serum lipids = assay: Biochemical screening (unstressed rat); assay type: in vivo; settings: oral, serum after 4 h
# Procedure: (c) Biochemical screening
# In accordance with the procedures set forth in Fletcher, M. J., Clin. Chim. […] Four hours later serum was analyzed for lipids and evaluated against a control group.
# [1] = test system: triton-WR 1339 hyperlipemia (serum lipids); assay: Acute triton test (1 × prophylactic application) on rats; assay type: in vivo
# Procedure: (a) Prophylactic application
# The n-oleyl derivative (i.e., n-oleyl cephalin) was orally administered to the test animals. […] Forty-eight hours after the triton application, serum was analyzed for lipids and compared with a control group.
# [2] = test system: triton-WR 1339 hyperlipemia (serum lipids); assay: Acute triton test (1 × therapeutic application) on rats; assay type: in vivo; settings: for minimal effective dose: Rattus norvegicus, po, 48 h
# Procedure: (b) Therapeutic application
# One hour later the n-oleyl cephalin was orally administered. Forty-eight hours after the triton is administered, serum is analyzed for lipids and evaluated against a control group.
# rat = assay: Acute toxicity, rat; assay type: in vivo
# mouse = assay: Acute toxicity, mouse; assay type: in vivo
# Acute toxicity, rat = assay type: in vivo; settings: in vivo
# Acute toxicity, mouse = assay type: in vivo; settings: in vivo
# [3] = background knowledge; cited from earlier work
# [4] = lowest effective dose, oral, prophylactic
# [5] = oral, 24 h before triton, serum 48 h after triton
# [6] = lowest dose with drop, therapeutic
# [7] = oral, 1 h after triton, serum 48 h after triton
# [8] = clofibrate, prophylactic, whole test, no single lipid named
molecule,measurement,setting,value
n-oleylphosphatidylethanolamine [N-oleylcephalin],Free cholesterol Drop from,serum lipids,50 mg/kg BW
same,Phospholipids Drop from,serum lipids,50 mg/kg BW
same,Total cholesterol Drop from,serum lipids,50 mg/kg BW
same,Total lipids Drop from,serum lipids,50 mg/kg BW
same,Triglycerides Drop from,serum lipids,50 mg/kg BW
same,Free cholesterol Effect from,[1]; [4],0.10 mg/kg BW
same,Total cholesterol Effect from,[1]; [4],0.01 mg/kg BW
same,Phospholipids E.D.50,[1]; [5],0.62 mg/kg BW
same,Total lipids E.D.50,[1]; [5],0.29 mg/kg BW
same,Triglycerides E.D.50,[1]; [5],0.18 mg/kg BW
same,Free cholesterol Drop from,[2]; [6],0.10 mg/kg BW
same,Phospholipids Drop from,[2]; [6],0.10 mg/kg BW
same,Total cholesterol E.D.50,[2]; [7],278.86 mg/kg BW
same,Total lipids E.D.50,[2]; [7],8.49 mg/kg BW
same,LD0 rat,rat,> 5000 mg/kg BW
same,LD50 rat,rat,> 5000 mg/kg BW
same,LD0 mouse,mouse,> 4640 mg/kg BW
same,LD50 mouse,mouse,> 4640 mg/kg BW
"CCOC(=O)C(C)(C)Oc1ccc(Cl)cc1 [Clofibrate, reference compound]",minimal effective dose,serum lipids; read-out: Total cholesterol Drop from,50 mg/kg
same,minimal effective dose,serum lipids; read-out: Total lipids Drop from,100 mg/kg
same,minimal effective dose,serum lipids; read-out: Triglycerides Drop from,50 mg/kg
same,Dosing ... very effective,[1]; [8],500 mg/kg BW
same,Dosings up to ... ineffective,[1]; [8],up to 250 mg/kg BW
same,minimal effective dose,"[2]; lowest dose with drop, therapeutic, read-out: Phospholipids Drop from",500 mg/kg
same,minimal effective dose,"[2]; lowest dose with drop, therapeutic, read-out: Total lipids Drop from",250 mg/kg
same,minimal effective dose,"[2]; lowest dose with drop, therapeutic, read-out: Triglycerides Drop from",250 mg/kg
same,Free cholesterol No effect up to,[2]; therapeutic,≤ 500 mg/kg BW
same,Total cholesterol No effect up to,[2]; therapeutic,≤ 500 mg/kg BW
same,LD0 rat,rat,~ 681 mg/kg BW
same,LD50,"Acute toxicity, rat",1100 mg/kg
same,LD50,"Acute toxicity, mouse",2960 mg/kg
same,LD0 mouse,mouse,~ 1470 mg/kg BW
CCCCC/C=C\C/C=C\CCCCCCCC(=O)NC1CCCCC1 [cyclohexyllinolamide],"antiarteriosclerotic, antilipemic, metabolic or lipid-reducing effect in words",[3],lipid-reducing effect
